Laboratory results published in patent publication US6498155B1, “Methods of treating thrombocytopenia” (SmithKline Beecham Corporation, priority 1998, dated 2002).

Tests used:
32D-mpl cells = details: concentration 1-30 uM
Experimental: (§1) 32D-mpl cells express Tpo-R and their survival is dependent on the presence of TPO. […] In this assay, purified human CD34+ progenitor cells were incubated in liquid culture with test compounds for 10 days and the number of cells expressing the transmembrane glycoprotein CD41 (gpIIb), a megakaryocytic marker, was then measured by flow cytometry (see Cwirla, S. E. et al Science, 1997, 276, 1696-1699).

[1] = test system: purified human CD34+ progenitor cells; details: concentrations 1-30 uM; 10 days liquid culture, CD41 by flow cytometry
Experimental: as §1

SMILES: Cl.Cl.Cl.Cl.Cl.Cl.Cl.Cl.O.O.c1cc(CN2CCCNCCNCCCNCC2)ccc1CN1CCCNCCNCCCNCC1 [Example 1, 1,1′-[1,4-Phenylenebis(methylene)]bis[1,4.8,11-tetraazacyclotetradecane]octahydrochloride Dihydrate]
- proliferation of 32D-mpl cells (32D-mpl cells): promoted the proliferation
- activity in the CD41 megakaryocytic assay [1]: showed activity
